Where a SMILES comes first, the peptide text is derived from it.
How the values were obtained:
[1] = cited from earlier work
Protocol: In stability assays in human plasma, peptide X was included because this compound was selected for in vivo assays of the anti-inflammatory activity. […] After 2 h of incubation, the levels of peptide X were, respectively, 10.3 and ...

TNBS-induced colitis = conditions: mouse model; cited from earlier work
[2] = Stability in human plasma; assay type: in vitro ADME; conditions: RP-HPLC
Protocol: Plasma-stability assays were performed, as described previously. The sample preparation and the analysis of peptide I were both performed in the same way as in our previous work. Peptides III and X were analyzed by RP-HPLC using a linear gradient of 20–80% B over 20 min with the same solvent system of 0.1% TFA in water (A) and 0.1% TFA in acetonitrile (B), with a flow rate of 1.5 mL/min. All measurements were performed in triplicate.

[3] = cited from earlier work; remark: listed apart in the source
[4] = target: neutral endopeptidase (NEP) (Homo sapiens, UniProt P08473); conditions: Tris-HCl buffer 50 mM, pH 7.4, 37 °C, RP-HPLC, mean ± SEM, ref Sobocińska et al. [24], cited from earlier work
neutral endopeptidase (NEP), sequence (P08473 whole entry, species assumed): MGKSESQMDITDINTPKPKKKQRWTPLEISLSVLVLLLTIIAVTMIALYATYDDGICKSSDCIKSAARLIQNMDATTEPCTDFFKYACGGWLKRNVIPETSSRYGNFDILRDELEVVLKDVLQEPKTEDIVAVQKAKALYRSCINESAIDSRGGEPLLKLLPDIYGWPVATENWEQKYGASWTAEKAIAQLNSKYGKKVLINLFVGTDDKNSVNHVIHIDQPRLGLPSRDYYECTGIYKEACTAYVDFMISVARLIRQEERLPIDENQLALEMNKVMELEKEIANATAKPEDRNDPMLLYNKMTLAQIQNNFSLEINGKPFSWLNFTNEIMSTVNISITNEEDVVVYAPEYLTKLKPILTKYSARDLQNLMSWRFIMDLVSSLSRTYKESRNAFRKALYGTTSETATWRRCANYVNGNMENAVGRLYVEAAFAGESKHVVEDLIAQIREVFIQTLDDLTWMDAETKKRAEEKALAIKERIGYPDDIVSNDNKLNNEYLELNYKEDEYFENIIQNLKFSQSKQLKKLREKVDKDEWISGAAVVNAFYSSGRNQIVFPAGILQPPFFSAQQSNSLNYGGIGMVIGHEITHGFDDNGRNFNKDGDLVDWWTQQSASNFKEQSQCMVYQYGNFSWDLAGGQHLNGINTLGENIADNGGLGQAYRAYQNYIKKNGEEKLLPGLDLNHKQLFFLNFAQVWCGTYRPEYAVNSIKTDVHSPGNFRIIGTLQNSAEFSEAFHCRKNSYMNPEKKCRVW

[5] = Solubility in Tris-HCl buffer; assay type: physicochemical; conditions: Tris-HCl buffer + 3% DMSO
Protocol: The designed dimers (peptides IX–XI) were sparingly soluble in Tris-HCl buffer. To improve their solubility in Tris-HCl buffer, 3% DMSO was added to the samples. […] In the time of analysis of spinorphin (III) and peptide IV, products with the same retention time as the analyzed substrate, were created, which made determining the inhibitory activity of the investigated peptides against NEP impossible.

Compound: Sialorphin (Gln-His-Asn-Pro-Arg) [Peptide I]
- remaining peptide in human plasma after 4 h ([1]; 4 h incubation, RP-HPLC, ref Sobocinska et al. [21]): completely decomposed
- stability in human plasma [1]: sensitive to degradation
- anti-inflammatory effect in TNBS-induced colitis (TNBS-induced colitis): potent anti-inflammatory activity

Compound: CC(C)C[C@H](NC(=O)[C@@H](N)CSSC[C@H](N)C(=O)N[C@@H](CCC(N)=O)C(=O)N[C@@H](Cc1c[nH]cn1)C(=O)N[C@@H](CC(N)=O)C(=O)N1CCC[C@H]1C(=O)N[C@@H](CCCNC(=N)N)C(=O)O)C(=O)N[C@H](C(=O)N[C@H](C(=O)N[C@@H](Cc1ccc(O)cc1)C(=O)N1CCC[C@H]1C(=O)N[C@@H](Cc1c[nH]c2ccccc12)C(=O)N[C@H](C(=O)O)[C@@H](C)O)C(C)C)C(C)C [Peptide X, Cys-Gln-His-Asn-Pro-Arg │ Cys-Leu-Val-Val-Tyr-Pro-Trp-Thr] (HELM PEPTIDE1{C.L.V.V.Y.P.W.T}|PEPTIDE2{C.Q.H.N.P.R}$PEPTIDE1,PEPTIDE2,1:R3-1:R3$$$V2.0)
- level of peptide in human plasma after 2 h relative to spinorphin ([2]; 2 h incubation, times higher): 4 times
- remaining at 4 h ([2]; 4 h incubation, triplicate, read-out: % of remaining peptide in human plasma after 4 h): 42%
- remaining at 24 h ([2]; 24 h incubation, triplicate, read-out: % of remaining peptide in human plasma after 24 h): 8%

Compound: CC(C)C[C@H](N)C(=O)N[C@H](C(=O)N[C@H](C(=O)N[C@@H](Cc1ccc(O)cc1)C(=O)N1CCC[C@H]1C(=O)N[C@@H](Cc1c[nH]c2ccccc12)C(=O)N[C@H](C(=O)O)[C@@H](C)O)C(C)C)C(C)C [III, Spinorphin (Leu-Val-Val-Tyr-Pro-Trp-Thr)] (H-LVVYPWT-OH)
- % of remaining peptide in human plasma after 4 h ([2]; 4 h incubation, triplicate): completely decomposed

Compound: Opiorphin (Gln-Arg-Phe-Ser-Arg) [II]
- anti-inflammatory effect in TNBS-induced colitis (TNBS-induced colitis): lack of a anti-inflammatory effect
- amount that disappears in human plasma because of potential complex formation [3]: 12%
- metabolic half-life in human plasma [3]: 5 min
- disappearance in human plasma by cyclization of Gln1 to Glp ([3]; maximum): ≤ 16%

Compound: Gln-His-Asn-Pro-Arg [Peptide I, Sialorphin (Gln-His-Asn-Pro-Arg)]
- 1000 × k, degradation rate of Met-enkephalin incubated with NEP and peptide ([4]; without inhibitor 25.35 ± 1.05): 8.84 ± 0.27 ** 1/min
- t1/2, half-life of Met-enkephalin incubated with NEP and peptide ([4]; without inhibitor 27 ± 1): 78 ± 2 min

Compound: CC(C)C[C@H](NC(=O)[C@@H](N)CSSC[C@H](N)C(=O)N[C@@H](CC(C)C)C(=O)N[C@H](C(=O)N[C@H](C(=O)N[C@@H](Cc1ccc(O)cc1)C(=O)N1CCC[C@H]1C(=O)N[C@@H](Cc1c[nH]c2ccccc12)C(=O)N[C@H](C(=O)O)[C@@H](C)O)C(C)C)C(C)C)C(=O)N[C@H](C(=O)N[C@H](C(=O)N[C@@H](Cc1ccc(O)cc1)C(=O)N1CCC[C@H]1C(=O)N[C@@H](Cc1c[nH]c2ccccc12)C(=O)N[C@H](C(=O)O)[C@@H](C)O)C(C)C)C(C)C [IX, (Cys-Leu-Val-Val-Tyr-Pro-Trp-Thr)2] (HELM PEPTIDE1{C.L.V.V.Y.P.W.T}|PEPTIDE2{C.L.V.V.Y.P.W.T}$PEPTIDE1,PEPTIDE2,1:R3-1:R3$$$V2.0)
- solubility in Tris-HCl buffer with 3% DMSO [5]: did not help to dissolve

Compound: Pal-KKQRFSR
- anti-inflammatory effect in TNBS-induced colitis (TNBS-induced colitis): lack of a anti-inflammatory effect

From PMC7763892, “Anti-Inflammatory Effect of Homo- and Heterodimers of Natural Enkephalinase Inhibitors in Experimental Colitis in Mice” (Molecules, 2020)
